Measurements taken from EPA's ToxValDB 9.5 (doi:10.2903/j.efsa.2006.86r).
Values after ≈ are worked out from the molar mass of the structure shown.

Key:
Typhlodromus pyri = assay: LR50; higher = less toxic; conditions: acute; duration: 48 hours; reproduction
Aphidius rhopalosiphi = assay: LR50; higher = less toxic; conditions: acute; duration: 48 hours; reproduction
Canidae = conditions: chronic; duration: 1 years; oral; Dog Other; clinical chemistry
Apis mellifera = conditions: acute, mortality
Coturnix japonica = conditions: acute; oral; mortality
Daphnia magna = conditions: chronic/long-term; duration: 21 days

## CCS(=O)CCSP(=O)(OC)OC (stereo unspecified) [Oxydemeton-methyl]
Typhlodromus pyri
  LR50: 143 g/ha
Aphidius rhopalosiphi
  LR50: 42.5 g/ha
Rattus norvegicus; acute, oral, mortality
  LD50: 48 mg/kg
Rattus norvegicus; chronic, duration: 2 years, clinical chemistry
  NOAEL: 0.03 mg/kg-day
Rattus norvegicus; reproduction developmental, M, reproduction
  NOAEL: 0.15 mg/kg-day
Rattus norvegicus; short-term, duration: 14 days, oral, clinical chemistry
  NOAEL: 0.15 mg/kg-day
Rattus norvegicus; subchronic, duration: 90 days, oral, clinical chemistry
  NOAEL: 0.1 mg/kg-day
Anas platyrhynchos; reproductive
  NOEC: 7.65 mg/kg-day
Anas platyrhynchos; short-term, oral, feed, mortality
  NOEL: 119 mg/kg-day
Canidae
  NOAEL: 0.1 mg/kg-day
Tagia sp.; acute, duration: 14 days, mortality
  LC50: 115 mg/kg
Tagia sp.; chronic/long-term, duration: 56 days, reproduction
  NOEC: 412 g/ha
Apis mellifera; duration: 48 hours, oral, unspecified
  LD50: 0.2 µg/piece
Apis mellifera; duration: 72 hours, dermal
  LD50: 0.175 µg/piece
Colinus virginianus; acute, oral, M, mortality
  LD50: 34 mg/kg
Colinus virginianus; reproduction developmental
  NOEC: 0.97 mg/kg-day
Colinus virginianus; short-term, oral, diet, mortality
  NOEL: 56.6 mg/kg-day
Coturnix japonica
  LD50: 29 mg/kg
Oncorhynchus mykiss; acute, duration: 96 hours, mortality
  LC50: 17 µg/mL (≈ 69 µM)
Oncorhynchus mykiss; chronic/long-term, duration: 98 days
  NOEC: 1.8 mg/L
Daphnia magna
  NOEC: 0.027 mg/L
